{"source": "patent US6358927B1", "about": "“Peptide fragments and analogs derived from PBAN 1-33 NH2 for controlling moths” (priority 1994, dated 2002)", "assay_type_in_all_cases": "in vivo", "key": {"[1]": {"tested_on": "Spodoptera littoralis larvae", "assay": "Melanotropic bioassay: cuticular melanization in ligated larvae", "settings": "for Non pigmented area / Pigmented area: 10 pmol injected, ligated larvae, computerized optical density scanner; for cuticular melanization (in words): injection into ligated larvae, compared with ligation or buffer injection", "method": "Structure activity studies were also performed with respect to the melanotropic activity of synthetic Hez-PBAN. All the fragments that were tested for their pheromonotropic activity were also tested for their melanotropic activity. Studies were performed on Spodoptera littoralis larvae using a quantitative bioassay (Altstein et al., Peptides, submitted, 1994) which examines the ability of PBAN fragments to induce cuticular melanization in ligated larvae. Ligated larvae produce smaller amounts of melanin compared to untreated larvae (Table 4) as a result of a reduction in their endogenous PBAN. Under the tested conditions ligation caused a significant, but not complete, reduction in cuticular melanization. This incomplete reduction may result from the presence of PBAN in ganglia which were not affected by the ligation or from the presence of another hormone or neuropeptide that affects this process.\nPigmented and non-pigmented areas were determined by a computerized optical density scanner as described by Altstein et al., (Peptides, submitted, 1994)."}, "Heliothis peltigera [2]": {"tested_on": "Heliothis peltigera", "assay": "Pheromonotropic bioassay: peptide injected into females, pheromone content (Z11-16:Ald) of the gland measured", "settings": "for effect of protease inhibitors on the biological activity of the peptide (in words): mixture of carboxypeptidase inhibitors (aprotinin and PMSF) and other protease inhibitors (TLCK, bacitracin) (FIG. 3); for biological activity (in words): 10 pmol in the presence of protease inhibitors for 2 hours", "method": "(§1) Structure activity studies were performed by an examination of the pheromonotropic activity of synthetic Hez-PAN (PBAN 1-33 NH2) and ten shorter fragments derived from its N- and C-terminal regions. Activity was tested on Heliothis peltigera using a bioassay as described by Gazit et al; (Insect Biochem., 20, 853-858, 1990). These structures are as follows:\nThe role of the N-terminus on the onset of the biological activity was examined using a series of peptides lacking 8, 12, 16, and 18 amino acids from their N-terminus [PBAN (9-33) NH2, PBAN (13-33) NH2, PBAN (17-33) NH2 and PBAN (19-33) NH2], respectively. […] Pheromone content was examined two hours post-injection. […] The N-terminal region may provide stability against proteolytic degradation or alternatively may play a secondary structural role.\nPheromonotropic activity was determined by injecting the peptides, dissolved in buffer phosphate to 3.5-4.5 days old females during daylight for two hours. Pheromone content is represented by the amount of the major pheromone component Z11-16:Ald."}, "Heliothis peltigera [3]": {"tested_on": "Heliothis peltigera", "assay": "Inhibition of pheromonotropic activity evoked by PBAN (1-33) NH2 (co-injection of free acid fragments or antiserum)", "settings": "for inhibitory activity on pheromonotropic activity evoked by PBAN (1-33) NH2 (in words): injected together with 1 pmol PBAN (1-33) NH2", "method": "as §1, with “1990).” for “1990). These structures are as follows:”"}, "Heliothis peltigera [4]": {"tested_on": "Heliothis peltigera", "assay": "Pheromonotropic bioassay: peptide injected into females, pheromone content (Z11-16:Ald) of the gland measured", "settings": "shortly after injection (15-30 min) (FIG. 5)"}, "[5]": {"settings": "Dose of 1 pmol, injected in phosphate buffer to 3.5-4.5 days old females during daylight for two hours"}, "[6]": {"settings": "Dose of 10 pmol, injected in phosphate buffer to 3.5-4.5 days old females during daylight for two hours"}, "[7]": {"settings": "concentrations ranging from 1-100 pmol, tested 2 hours post injection (FIG. 4)"}, "[8]": {"settings": "1 pmol, pheromone content two hours post-injection"}, "[9]": {"settings": "C-terminally free acid peptides, 10 pmol, in the presence of protease inhibitors for 2 hours"}, "[10]": {"settings": "free acid fragment at 10 pmol injected together with PBAN (1-33) NH2 at 1 pmol"}}, "data": [{"substance": "H-Leu^1-Ser-Asp-Asp-Met-Pro-Ala-Thr-Pro-Ala^10-Asp-Gln-Glu-Met-Tyr-Arg-Gln-Asp-Pro-Glu^20-Gln-Ile-Asp-Ser-Arg-Thr-Lys-Tyr-Phe-Ser^30-Pro-Arg-Leu^33-NH2 [PBAN (1-33) NH2, reference compound]", "values": [{"measurement": "Non pigmented area", "setting": "[1]", "result": 4, "unit": "%"}, {"measurement": "Pigmented area", "setting": "[1]", "result": 96, "unit": "%"}, {"measurement": "cuticular melanization (in words)", "setting": "[1]", "result": "significant increase"}, {"measurement": "Pheromone content Z11-16:Ald ng/gland ± SE", "setting": "Heliothis peltigera [2]; [5]", "result": "200.7 ± 40.7", "unit": "a ng/gland"}, {"measurement": "Pheromone content Z11-16:Ald ng/gland ± SE", "setting": "Heliothis peltigera [2]; [6]", "result": "225.2 ± 51.4", "unit": "a′ ng/gland"}, {"measurement": "effect of protease inhibitors on the biological activity of the peptide (in words)", "setting": "Heliothis peltigera [2]", "result": "significant stimulation in its activity"}, {"measurement": "Pheromone content Z11-16:Ald ng/gland ± SE", "setting": "Heliothis peltigera [3]; PBAN (1-33) NH2 alone at 1 pmol (control of Table 3)", "result": "165.0 ± 21.0", "unit": "ng/gland"}]}, {"substance": "H-Tyr-Phe-Ser^30-Pro-Arg-Leu^33-NH2 (H-YFSPRL-NH2) [PBAN (28-33) NH2]", "values": [{"measurement": "Pheromone content Z11-16:Ald ng/gland ± SE", "setting": "Heliothis peltigera [2]; [5]", "result": "5.6 ± 1.7", "unit": "d ng/gland"}, {"measurement": "Pheromone content Z11-16:Ald ng/gland ± SE", "setting": "Heliothis peltigera [2]; [6]", "result": "12.7 ± 4.9", "unit": "c′ ng/gland"}, {"measurement": "pheromonotropic activity (in words)", "setting": "Heliothis peltigera [2]; [7]", "result": "active only at high doses (100 pmol)"}, {"measurement": "pheromonotropic activity (in words)", "setting": "Heliothis peltigera [4]", "result": "does not differ significantly from that of the full length PBAN (1-33) NH2"}]}, {"substance": "H-Pro-Ala^10-Asp-Gln-Glu-Met-Tyr-Arg-Gln-Asp-Pro-Glu^20-Gln-Ile-Asp-Ser-Arg-Thr-Lys-Tyr-Phe-Ser^30-Pro-Arg-Leu^33-NH2 [PBAN (9-33) NH2]", "values": [{"measurement": "pheromonotropic activity (in words)", "setting": "Heliothis peltigera [2]; [8]", "result": "active as PBAN (1-33) NH2"}, {"measurement": "Pheromone content Z11-16:Ald ng/gland ± SE", "setting": "Heliothis peltigera [2]; [5]", "result": "143.7 ± 29.6", "unit": "a ng/gland"}, {"measurement": "Pheromone content Z11-16:Ald ng/gland ± SE", "setting": "Heliothis peltigera [2]; [6]", "result": "168.0 ± 9.2", "unit": "a′ ng/gland"}]}, {"substance": "H-Thr-Lys-Tyr-Phe-Ser^30-Pro-Arg-Leu^33-NH2 (H-TKYFSPRL-NH2) [PBAN (26-33) NH2]", "values": [{"measurement": "Pheromone content Z11-16:Ald ng/gland ± SE", "setting": "Heliothis peltigera [2]; [5]", "result": "8.9 ± 3.5", "unit": "d ng/gland"}, {"measurement": "Pheromone content Z11-16:Ald ng/gland ± SE", "setting": "Heliothis peltigera [2]; [6]", "result": "12.2 ± 3.1", "unit": "c′ ng/gland"}, {"measurement": "pheromonotropic activity (in words)", "setting": "Heliothis peltigera [2]; [7]", "result": "active only at high doses (100 pmol)"}]}, {"substance": "H-Pro-Ala^10-Asp-Gln-Glu-Met-Tyr-Arg-Gln-Asp^18-COOH (H-PADQEMYRQD-OH) [PBAN (9-18) COOH]", "values": [{"measurement": "Non pigmented area", "setting": "[1]", "result": 25, "unit": "%"}, {"measurement": "Pigmented area", "setting": "[1]", "result": 75, "unit": "%"}, {"measurement": "cuticular melanization (in words)", "setting": "[1]", "result": "significant decrease"}, {"measurement": "biological activity (in words)", "setting": "Heliothis peltigera [2]", "result": "lack any biological activity"}, {"measurement": "Pheromone content Z11-16:Ald ng/gland ± SE", "setting": "Heliothis peltigera [2]; [9]", "result": "<1", "unit": "ng/gland"}, {"measurement": "inhibition of the pheromonotropic activity", "setting": "Heliothis peltigera [3]; 100 pmol of fragment together with 0.5 pmol PBAN (1-33) NH2 (FIG. 6)", "result": 40, "unit": "%"}, {"measurement": "Inhibition (% of cont)", "setting": "Heliothis peltigera [3]; [10]", "result": 35, "unit": "%"}, {"measurement": "Pheromone content Z11-16:Ald ng/gland ± SE", "setting": "Heliothis peltigera [3]; [10]", "result": "108.1 ± 18.0", "unit": "ng/gland"}]}, {"substance": "H-Leu^1-Ser-Asp-Asp-Met-Pro-Ala-Thr-Pro-Ala^10-Asp-Gln-Glu-Met-Tyr-Arg-Gln-Asp-Pro-Glu^20-Gln-Ile-Asp-Ser-Arg-Thr-Lys-Tyr-Phe-Ser^30-Pro-Arg-Leu^33-COOH [PBAN (1-33) COOH]", "values": [{"measurement": "pheromonotropic activity (in words)", "setting": "Heliothis peltigera [2]; 10 pmol", "result": "completely inactive"}, {"measurement": "Pheromone content Z11-16:Ald ng/gland ± SE", "setting": "Heliothis peltigera [2]; [9]", "result": "1.4 ± 0.76", "unit": "ng/gland"}, {"measurement": "effect of protease inhibitors on the biological activity of the peptide (in words)", "setting": "Heliothis peltigera [2]", "result": "did not enhance"}, {"measurement": "Inhibition (% of cont)", "setting": "Heliothis peltigera [3]; [10]", "result": 0, "unit": "%"}, {"measurement": "Pheromone content Z11-16:Ald ng/gland ± SE", "setting": "Heliothis peltigera [3]; [10]", "result": "170.2 ± 24.2", "unit": "ng/gland"}, {"measurement": "inhibitory activity on pheromonotropic activity evoked by PBAN (1-33) NH2 (in words)", "setting": "Heliothis peltigera [3]", "result": "did not show any inhibitory activity"}]}, {"substance": "H-Pro-Glu^20-Gln-Ile-Asp-Ser-Arg-Thr-Lys-Tyr-Phe-Ser^30-Pro-Arg-Leu^33-COOH [PBAN (19-33) COOH]", "values": [{"measurement": "biological activity (in words)", "setting": "Heliothis peltigera [2]", "result": "lack any biological activity"}, {"measurement": "Pheromone content Z11-16:Ald ng/gland ± SE", "setting": "Heliothis peltigera [2]; [9]", "result": "<1", "unit": "ng/gland"}, {"measurement": "Inhibition (% of cont)", "setting": "Heliothis peltigera [3]; [10]", "result": 27, "unit": "%"}, {"measurement": "Pheromone content Z11-16:Ald ng/gland ± SE", "setting": "Heliothis peltigera [3]; [10]", "result": "120.4 ± 29.2", "unit": "ng/gland"}, {"measurement": "inhibitory activity on pheromonotropic activity evoked by PBAN (1-33) NH2 (in words)", "setting": "Heliothis peltigera [3]", "result": "did not show any inhibitory activity"}]}, {"substance": "H-Glu-Met-Tyr-Arg-Gln-Asp-Pro-Glu^20-Gln-Ile-Asp-Ser-Arg-Thr-Lys-Tyr-Phe-Ser^30-Pro-Arg-Leu^33-NH2 [PBAN (13-33) NH2]", "values": [{"measurement": "Pheromone content Z11-16:Ald ng/gland ± SE", "setting": "Heliothis peltigera [2]; [5]", "result": "4.1 ± 3.0", "unit": "d ng/gland"}, {"measurement": "Pheromone content Z11-16:Ald ng/gland ± SE", "setting": "Heliothis peltigera [2]; [6]", "result": "180.2 ± 47.3", "unit": "a′ ng/gland"}]}, {"substance": "H-Pro-Ala^10-Asp-Gln-Glu-Met-Tyr-Arg-Gln-Asp-Pro-Glu^20-Gln-Ile-Asp-Ser-Arg-Thr-Lys-Tyr-Phe-Ser^30-Pro-Arg-Leu^23-COOH (H-PADQEMYRQDPEQIDSRTKYFSPRL-OH) [PBAN (9-33) COOH]", "values": [{"measurement": "biological activity (in words)", "setting": "Heliothis peltigera [2]", "result": "lack any biological activity"}, {"measurement": "Pheromone content Z11-16:Ald ng/gland ± SE", "setting": "Heliothis peltigera [2]; [9]", "result": "<1", "unit": "ng/gland"}, {"measurement": "Inhibition (% of cont)", "setting": "Heliothis peltigera [3]; [10]", "result": 7, "unit": "%"}, {"measurement": "Pheromone content Z11-16:Ald ng/gland ± SE", "setting": "Heliothis peltigera [3]; [10]", "result": "154.7 ± 22.2", "unit": "ng/gland"}, {"measurement": "inhibitory activity on pheromonotropic activity evoked by PBAN (1-33) NH2 (in words)", "setting": "Heliothis peltigera [3]", "result": "did not show any inhibitory activity"}]}, {"substance": "H-Gln-Asp-Pro-Glu^20-Gln-Ile-Asp-Ser-Arg-Thr-Lys-Tyr-Phe-Ser^30-Pro-Arg-Leu^33-NH2 [PBAN (17-33) NH2]", "values": [{"measurement": "Pheromone content Z11-16:Ald ng/gland ± SE", "setting": "Heliothis peltigera [2]; [5]", "result": "24.1 ± 5.7", "unit": "c ng/gland"}, {"measurement": "Pheromone content Z11-16:Ald ng/gland ± SE", "setting": "Heliothis peltigera [2]; [6]", "result": "196.9 ± 40.7", "unit": "a′ ng/gland"}]}, {"substance": "H-Pro-Glu^20-Gln-Ile-Asp-Ser-Arg-Thr-Lys-Tyr-Phe-Ser^30-Pro-Arg-Leu^33-NH2 [PBAN (19-33) NH2]", "values": [{"measurement": "pheromonotropic activity (in words)", "setting": "Heliothis peltigera [2]; [8]", "result": "low activity"}, {"measurement": "Pheromone content Z11-16:Ald ng/gland ± SE", "setting": "Heliothis peltigera [2]; [5]", "result": "52.7 ± 21.0", "unit": "b ng/gland"}, {"measurement": "Pheromone content Z11-16:Ald ng/gland ± SE", "setting": "Heliothis peltigera [2]; [6]", "result": "133.8 ± 15.7", "unit": "b′ ng/gland"}]}]}
